Experimental data published in patent US10327448B2, “Bacterium of Bacillus genus and uses thereof” (priority 2014, dated 2019).
Positions of bridges follow the written chain, without caps; N, C: chain ends. Non-standard residues stand in square brackets, D forms with d. Residues, ends and D or L forms follow the SMILES beside them. *: point of attachment. Ileψ(thiazoline)Cys = CC[C@H](C)[C@H](N)C1=N[C@H](C(=O)*)CS1; dOrn = NCCC[C@@H](N)C(=O)O

System: Bacillus subtilis ssp. shriramensis (MTCC-5674)
Test: Antibiotic sensitivity test (antibiotic discs on T3 agar); on Result: key: RES - Resistant; INT - Intermediate; SEN - Sensitive
Assay type: cell-based
Settings: antibiotic disc on T3 agar, 30° C. for 24 hours; for Result: judged against Standards
Method: Different antibiotic discs were placed on the surface of the T3 agar plates labelled with the respective antibiotic. The plates were incubated at 30° C. for 24 hours.

Molecule | Zone [mm] | antibiotic sensitivity of the bacterium, in words | Result
NCC[C@H](O)C(=O)N[C@@H]1C[C@H](N)[C@@H](O[C@H]2O[C@H](CN)[C@@H](O)[C@H](O)[C@H]2O)[C@H](O)[C@H]1O[C@H]1O[C@H](CO)[C@@H](O)[C@H](N)[C@H]1O [Amikacin] | 15 | intermediate resistance | INT
CC1(C)S[C@@H]2[C@H](NC(=O)[C@H](N)c3ccc(O)cc3)C(=O)N2[C@H]1C(=O)O [Amoxicillin] | 0 | resistant | RES
CC1(C)S[C@@H]2[C@H](NC(=O)[C@H](N)c3ccccc3)C(=O)N2[C@H]1C(=O)O [Ampicillin] | 0 | resistant | RES
CC[C@H]1OC(=O)[C@H](C)[C@@H](O[C@H]2C[C@@](C)(OC)[C@@H](O)[C@H](C)O2)[C@H](C)[C@@H](O[C@@H]2O[C@H](C)C[C@H](N(C)C)[C@H]2O)[C@](C)(O)C[C@@H](C)CN(C)[C@H](C)[C@@H](O)[C@]1(C)O [Azithromycin] | 10 | resistant | RES
CC[C@H](C)[C@H](N)C1=N[C@H](C(=O)N[C@@H](CC(C)C)C(=O)N[C@H](CCC(=O)O)C(=O)N[C@H](C(=O)N[C@H]2CCCCNC(=O)[C@H](CC(N)=O)NC(=O)[C@@H](CC(=O)O)NC(=O)[C@H](Cc3cnc[nH]3)NC(=O)[C@@H](Cc3ccccc3)NC(=O)[C@H]([C@@H](C)CC)NC(=O)[C@@H](CCCN)NC2=O)[C@@H](C)CC)CS1 [Bacitracin] ({Ileψ(thiazoline)Cys}-L[dE]IK[dOrn]I[dF]H[dD]N; lactam 4-C) | 21 | sensitive | SEN
CC1(C)S[C@@H]2[C@H](NC(=O)C(C(=O)O)c3ccccc3)C(=O)N2[C@H]1C(=O)O (stereo partly drawn) [Carbenicillin] | 15 | resistant | RES
CO/N=C(\C(=O)N[C@@H]1C(=O)N2C(C(=O)O)=C(CSc3nc(=O)c(=O)[nH]n3C)CS[C@H]12)c1csc(N)n1 [Ceftriaxone] | 28 | sensitive | SEN
CC(=O)OCC1=C(C(=O)O)N2C(=O)[C@@H](NC(=O)Cc3cccs3)[C@H]2SC1 [Cephalothin] | 40 | sensitive | SEN
O=C(N[C@H](CO)[C@H](O)c1ccc([N+](=O)[O-])cc1)C(Cl)Cl [Chloramphenicol] | 25 | sensitive | SEN
CCC[C@@H]1C[C@@H](C(=O)N[C@@H]([C@H]2O[C@H](SC)[C@H](O)[C@@H](O)[C@H]2O)[C@H](C)Cl)N(C)C1 [Clindamycin] | 10 |  | 
CCN1CCN(c2cc3c(cc2F)c(=O)c(C(=O)O)cn3C2CC2)CC1 [Enrofloxacin] | 41 | resistant | RES
CC[C@H]1OC(=O)[C@H](C)[C@@H](O[C@H]2C[C@@](C)(OC)[C@@H](O)[C@H](C)O2)[C@H](C)[C@@H](O[C@@H]2O[C@H](C)C[C@H](N(C)C)[C@H]2O)[C@](C)(O)C[C@@H](C)C(=O)[C@H](C)[C@@H](O)[C@]1(C)O [Erythromycin] | 16 | intermediate resistance | INT
NC[C@H]1O[C@H](O[C@H]2[C@H](O)[C@@H](O[C@H]3O[C@H](CO)[C@@H](O)[C@H](N)[C@H]3O)[C@H](N)C[C@@H]2N)[C@H](O)[C@@H](O)[C@@H]1O [Kanamycin] | 13 |  | RES
CCC[C@@H]1C[C@@H](C(=O)N[C@@H]([C@H]2O[C@H](SC)[C@H](O)[C@@H](O)[C@H]2O)[C@@H](C)O)N(C)C1 [Lincomycin] | 12 | resistant | RES
CO[C@@H]1[C@@H](OC(N)=O)[C@@H](O)[C@H](Oc2ccc3c(O)c(NC(=O)c4ccc(O)c(CC=C(C)C)c4)c(=O)oc3c2C)OC1(C)C [Novobiocin] | 24 | sensitive | SEN
Cc1onc(-c2ccccc2)c1C(=O)N[C@@H]1C(=O)N2[C@@H]1SC(C)(C)[C@@H]2C(=O)O [Oxacillin] | 11 | intermediate resistance | INT
[H]/N=C(/N)N[C@H]1[C@H](O)[C@@H](O)[C@H](O[C@@H]2O[C@@H](C)[C@](O)(C=O)[C@H]2O[C@@H]2O[C@@H](CO)[C@H](O)[C@@H](O)[C@@H]2NC)[C@@H](N/C(N)=N\[H])[C@@H]1O [Streptomycin] | 12 | intermediate resistance | INT
Cc1noc(NS(=O)(=O)c2ccc(N)cc2)c1C [Sulfisoxazole] | 33 | sensitive | SEN
NC[C@H]1O[C@H](O[C@H]2[C@H](O)[C@@H](O[C@H]3O[C@H](CO)[C@@H](O)[C@H](N)[C@H]3O)[C@H](N)C[C@@H]2N)[C@H](N)C[C@@H]1O [Tobramycin] | 15 | sensitive | SEN
CN[C@H](CC(C)C)C(=O)N[C@H]1C(=O)N[C@@H](CC(N)=O)C(=O)N[C@H]2C(=O)N[C@H]3C(=O)N[C@H](C(=O)N[C@H](C(=O)O)c4cc(O)cc(O)c4-c4cc3ccc4O)[C@H](O)c3ccc(c(Cl)c3)Oc3cc2cc(c3O[C@@H]2O[C@H](CO)[C@@H](O)[C@H](O)[C@H]2O[C@H]2C[C@](C)(N)[C@H](O)[C@H](C)O2)Oc2ccc(cc2Cl)[C@H]1O [Vancomycin] | 20 | sensitive | SEN
Gentamicin | 20 | sensitive | SEN
Neomycin | 12 | resistant | RES
